Data on three compounds can be found in patent US5767149A, “α-glycosyl-L-ascorbic acid, and it's preparation and uses” (priority 1989, dated 1998).

The test system of one series is cytochrome C. Description: Reducing activity on cytochrome C. As to conditions: for Reducing activity on cytochrome C: intact sample, 10 microliters of 10 mM, pH 7.8. The format is biochemical.
The nature of the next series: Solubility in solvents. Format: physicochemical.
Series [1] in a line: Coloring reaction: direct reducing activity on 2,6-dichlorophenolindophenol.
Another series deals with β-glucosidase. Description: Hydrolysis by β-glucosidase. Format: biochemical. The source says: (b) Unhydrolyzable by β-glucosidase.
Series [2] is described as follows: Hydrolysis by 1N hydrochloric acid at 100° C. The format is physicochemical. As to conditions: 5 minutes. The method, then:
(§1) (a) Hydrolyzable by α-glucosidase or by treatment with 1N hydrochloric acid at 100° C. for 5 minutes to form L-ascorbic acid and D-glucose at a molar ratio of 1:1.

The test system of another series is human fibroblast cell. Description: Collagenic activity in human fibroblast cell. Format: cell-based. As to conditions: 0.25 mM, 24 hours. As for the experimental part: (b) Collagenic activity 2-O-α-D-Glucosyl-L-ascorbic acid, 6-O-α-D-glucosyl-L-ascorbic acid and L-ascorbic acid were tested for their collagenic activity. A human fibroblast cell, cell density of 7×10^4 cells/plate, was cultured in Eagle's minimal essential medium supplemented with 10% FCS for 1 week, added with 4 μCi/ml ^3 H-proline, 20 μg/ml of β-aminopropionitrile and 0.25 mM of either sample, and cultured for an additional 24 hours. The resultant was then added with 10 w/v % trichloroacetic acid to recover the collagenous element in the culture, followed by lyophilization. The resultant specimen was dissolved, and the solution was adjusted to an appropriate pH, treated with a collagenase (Type III) at 37° C. for 90 minutes, and centrifuged. Collagenic activity was estimated by determining the radio activity in the supernatant.

A short description of the next series: physchem. Format: physicochemical. The conditions noted are these: for Remaining ratio: 0 min, 70 uM; for remaining at 0.25 h, 70 µM / remaining at 0.5 h, 70 µM / remaining at 1 h, 70 µM / remaining at 21 h, 70 µM: water. The method, then: (c) 2-O-α-D-Glucosyl-L-ascorbic acid was compared respectively to the 6-O-α-D-glucosyl-L-ascorbic acid disclosed in Japanese Patent Publication No. 38,158/73, and L-ascorbic acid for their stability in aqueous solution. More particularly, each sample was adjusted to a concentration of 70 micromoles and to pH 7.0 or 2.0, placed in a cuvette, and measured for its absorbance at either 260 nm and pH 7.0 or at 245 nm and pH 2.0 while keeping the solution at 20° C. The remaining ratio (%) was calculated with the absorbance.

The test system of the next series is dd mice. The series is described as follows: Acute toxicity, oral. The format is in vivo, mouse. The source says:
A high-purity α-D-glucosyl-L-ascorbic acid specimen, prepared by the method in Experiment 2(2), was orally administered to 7 week-old dd mice for acute toxicity test. As the result, no mouse died when administered with up to […] of the specimen, and higher dose was difficult.

For a further series, the system named is α-glucosidase. The series is described as follows: Hydrolysis by α-glucosidase. The format is biochemical. As to conditions: forms L-ascorbic acid and D-glucose, molar ratio 1:1. As for the experimental part:
as §1

For orientation: fraction remaining means what is left of the initial amount, in per cent. A higher fraction remaining goes with less turnover. As for `O=C1O[C@H]([C@@H](O)CO)C(O)=C1O[C@H]1O[C@H](CO)[C@@H](O)[C@H](O)[C@H]1O` [2-O-α-D-glucosyl-L-ascorbic acid], the “Reducing activity on cytochrome C after hydrolysis” value in the series with cytochrome C (hydrolyzed by α-glucosidase specimen) is given as “exhibited a reducing activity”. Also, in the series on cytochrome C, the “Reducing activity on cytochrome C” value is recorded as “no reducing activity”. Moreover, the Solubility result is “Readily soluble” in “Solubility in solvents” (0.1N acetic acid); “Readily soluble” in the series “Solubility in solvents” (0.1N sodium hydroxide); “insoluble” in the series “Solubility in solvents” (benzene); “insoluble” in the series “Solubility in solvents” (chloroform); “soluble” in “Solubility in solvents” (ethanol); “insoluble” in “Solubility in solvents” (ether). For the same compound, the figures for the Solubility result in the series “Solubility in solvents” (methanol) and in “Solubility in solvents” (water) were “soluble” and “Readily soluble”, respectively. In series [1], the “Direct reducing activity (2,6-dichlorophenolindophenol)” value is “no direct reducing activity, and not reducing and decoloring 2,6-dichlorophenolindophenol”. In the series on β-glucosidase, the “Hydrolysis by β-glucosidase” value is listed as “Unhydrolyzable”. The Hydrolysis by acid result in [2] is “Hydrolyzable”. Besides, in the series with human fibroblast cell, the Collagenic activity entry is recorded as “the same collagenic activity as that of L-ascorbic acid”. Moreover, the “Stability in aqueous solution” value in “physchem” was “extremely stable in aqueous solution”. Also, the Remaining ratio in the series “physchem” (pH 2) and in “physchem” (pH 7) was 100% in each case. Besides, the fraction remaining at 0.25 h, 70 µM in “physchem” (pH 2) and in the series “physchem” (pH 7) was 100% in each case. The amount remaining at 0.5 h, 70 µM in the series “physchem” (pH 2) and in “physchem” (pH 7) was 100% in each case. For the same compound, the fraction remaining at 1 h, 70 µM in “physchem” (pH 2) and in the series “physchem” (pH 7) was 100% in each case. Further, the amount remaining at 21 h, 70 µM in the series “physchem” (pH 2) and in “physchem” (pH 7) was 100% throughout. In addition, the “Highest dose administered without death” value in the series on dd mice (7 week-old dd mice, higher dose was difficult) was at least 5 g. Also, the Mortality entry in the series with dd mice (7 week-old dd mice, up to 5 g) is “no mouse died”. Also, the “Toxicity” value in the series on dd mice (dd mice) was “extremely low in toxicity”. For the same compound, the “Hydrolysis by α-glucosidase” value in the series with α-glucosidase was “Hydrolyzable”.

As to `O=C1O[C@H]([C@@H](O)CO[C@H]2O[C@H](CO)[C@@H](O)[C@H](O)[C@H]2O)C(O)=C1O` [6-O-α-D-glucosyl-L-ascorbic acid], in the series on cytochrome C, the “Reducing activity on cytochrome C” value was “unlike 6-O-α-D-glucosyl-L-ascorbic acid and L-ascorbic acid, 2-O-α-D-glucosyl-L-ascorbic acid exhibited no reducing activity”. For the same compound, the Collagenic activity result in the series on human fibroblast cell is reported as “slightly inferior in collagenic activity to that of 2-O-α-D-glucosyl-L-ascorbic acid”. In addition, in the series “physchem” (pH 2), the Remaining ratio is recorded as 100%; the fraction remaining at 0.25 h, 70 µM is 99%; the fraction remaining at 0.5 h, 70 µM was found to be 98%; the fraction remaining at 1 h, 70 µM worked out at 91%. Also, the fraction remaining at 21 h, 70 µM in “physchem” (pH 2) was found to be 55%. Moreover, in the series “physchem” (pH 7), the Remaining ratio worked out at 100%; the share remaining at 0.25 h, 70 µM stood at 58%; the share remaining at 0.5 h, 70 µM amounted to 36%; the share remaining at 1 h, 70 µM worked out at 17%. In “physchem” (pH 7), this compound gave a share remaining at 21 h, 70 µM of 8%.

Turning to `O=C1O[C@H]([C@@H](O)CO)C(O)=C1O` [L-ascorbic acid], the “Reducing activity on cytochrome C” value in the series with cytochrome C was “unlike 6-O-α-D-glucosyl-L-ascorbic acid and L-ascorbic acid, 2-O-α-D-glucosyl-L-ascorbic acid exhibited no reducing activity”. Besides, in the series “physchem” (pH 2), the Remaining ratio turned out to be 100%; the share remaining at 0.25 h, 70 µM came out at 99%; the amount remaining at 0.5 h, 70 µM came to 97%; the share remaining at 1 h, 70 µM is 87%. The compound further yielded a fraction remaining at 21 h, 70 µM in “physchem” (pH 2) of 10%. Also, in “physchem” (pH 7), the Remaining ratio is reported as 100%; the share remaining at 0.25 h, 70 µM was found to be 47%; the amount remaining at 0.5 h, 70 µM was 20%; the amount remaining at 1 h, 70 µM was 8%. In addition, the fraction remaining at 21 h, 70 µM in the series “physchem” (pH 7) is 2%.
